One series addresses Dipeptidyl peptidase 2 (Homo sapiens, UniProt Q9UHL4). Description: In vitro inhibition of QPP dipeptidylpeptidase II.
For a further series, the species on record is Canis familiaris. The experiment in a line: Dose-normalized area under plasma concentration vs time curve in dogs. The class given is ADME, organism-based, Canis lupus familiaris. The following applies: dog, in vivo.
Series [1] in a line: Half-life in dogs. The class given is ADME, organism-based, Canis lupus familiaris. The settings on record: dog, in vivo.
The species named for a further series is Rattus norvegicus. Description: Dose-normalized area under plasma concentration vs time curve in rats. The class given is ADME, organism-based. The following applies: in vivo.
Series [2] can be described thus: Half-life in rats. The class given is ADME, organism-based. The settings on record: rat, in vivo.
The nature of series [3]: Oral bioavailability in dogs. It is filed as ADME, organism-based, Canis lupus familiaris. The following applies: dog, in vivo.
The nature of series [4]: Plasma clearance in rats. It is filed as ADME, organism-based. The following applies: rat, read-out: Clp.
The nature of series [5]: Oral bioavailability in rats. The class given is ADME, organism-based. The settings on record: rat, in vivo.
The nature of series [6]: Plasma clearance in dogs. The settings on record: dog, read-out: Clp. The class given is ADME, organism-based, Canis lupus familiaris.

As usually defined, the IC50 is the concentration at which inhibition is half-maximal. A lower IC50 goes with greater potency. The molecule `N[C@@H](CC(=O)N1CCCNC(=O)C1)Cc1cc(F)c(F)cc1F` gave an IC50 against Dipeptidyl peptidase 2 above 100 µM.
What is called half-life is the time needed for the level to fall by half in the phase considered. High values mean slow decline, low ones rapid decline. The bioavailability is the share of a dose that reaches the circulation, judged against a reference dose that is usually intravenous. High values mean much systemic uptake, low ones little systemic uptake. As for `N[C@@H](CC(=O)N1CCCNC(=O)[C@H]1CC(F)(F)F)Cc1cc(F)c(F)cc1F`, the AUC was 2.2 uM h/(mg/kg) in the series filed under Canis familiaris and 0.2 uM h/(mg/kg) in the series listed under Rattus norvegicus. Moreover, the half-life in [1] is 9 h; in [2] it was 2 h. The bioavailability in [3] was 95%; in series [5], 36%. Besides, the clearance in [4] was 94 mL/min/kg; in series [6], 18 mL/min/kg.
`C[C@@H]1C(=O)NCCCN1C(=O)C[C@H](N)Cc1cc(F)c(F)cc1F`: the AUC in the series listed under Canis familiaris was 8.5 uM h/(mg/kg); in the series listed under Rattus norvegicus, 0.15 uM h/(mg/kg). Moreover, the half-life is 4.3 h in [1] and 1 h in [2]. The bioavailability in [3] came to 100%; in [5], 26%. The clearance was determined as 88 mL/min/kg in series [4] and 9 mL/min/kg in series [6].

Source of the values: ChEMBL document CHEMBL1137590, “(3R)-4-[(3R)-3-Amino-4-(2,4,5-trifluorophenyl)butanoyl]-3-(2,2,2-trifluoroethyl)-1,4-diazepan-2-one, a selective dipeptidyl peptidase IV inhibitor for the treatment of type 2 diabetes” (Bioorg Med Chem Lett, 2007).
